# Data reported in patent US11166958B2, “4-pyrazin-2-ylmethyl-morpholine derivatives and the use thereof as medicament” (Boehringer Ingelheim International GmbH, priority 2018, dated 2021).
# How the values were obtained:
# [1] = target: NMDA NR1/NR2B receptor (Homo sapiens (Human), UniProt Q13224); experiment: In vitro NMDA NR1/NR2B cell assay (FLIPR, intracellular calcium induced by glycine/glutamate); format: cell-based; conditions: HEK293 NR1/NR2B, 20 μM glycine / 1 μM glutamate, read-out: In vitro NR2B affinity, IC50
# Method: A human HEK293 cell line with tetracyclin-inducible expression of NMDA NR1/NR2B receptor was used as a test system for compound efficacy and potency. The cell line was purchased from ChanTest, Catalog #CT6121. Compound activity was determined by measuring the effect of compounds on intracellular calcium concentration induced by glycine/glutamate agonism in a FLIPRtetra system (Molecular Devices).
# The cells were obtained as frozen cells in cryo-vials and stored until use at −150° C. Cells were grown in culture medium (DMEM/F12, 10% FBS, 5 μg/mL Blasticidin, 150 μg/mL Zeozin, 500 μg/mL Geneticin). […] For sub-culturing the cells were detached from flasks by Versene. For the assay, cells were detached, washed twice with induction medium (DMEM/F12 without glutamine, 10% FBS, 2 μg/mL Tetracycline, 2 mM Ketamine) and seeded to 384 well pure coat amine plates (Becton Dickinson, 50000 cells per well in 50 μl) 48 h prior to assay in induction medium.
# The test compounds were dissolved in 100% DMSO at a concentration of 10 mM and in a first step diluted in DMSO to a concentration of 5 mM, followed by serial dilution steps in 100% DMSO. Dilution factor and number of dilution steps may vary according to needs. Typically 8 different concentrations by 1:5 dilutions were prepared in duplicate, further intermediate dilutions (1:37.5) of the substances were carried out with aqueous assay buffer (137 mM NaCl, 4 mM KCl, 1.8 mM CaCl2), 10 mM HEPES, 10 mM Glucose, pH 7.4) resulting in a compound concentration 3 times above the final test concentration and DMSO at 2.7% resulting in 0.9% final DMSO concentration in the assay.
# At the assay day cells were washed 3× with assay buffer (as described above), 10 μL buffer remained in the wells after washing. 10 μL Ca kit loading buffer (AAT Bioquest; prepared from the kit containing the following components: Component A: Fluo-8 NW dissolved in 200 μL DMSO and 20 μl of this solution are mixed with 10 ml buffer prepared out of component B and C, Component B: 10× Pluronic® F127 Plus diluted 1:10 in component C, Component C: HHBS (Hanks with 20 mM Hepes) was added to the cells and the plates were incubated with lid for 60 minutes at room temperature. 20 μl assay buffer containing 60 μM glycine (20 μM final) and 3 μM glutamate (1 μM final) was added to column 1-23, column 24 got assay buffer without glycine/glutamate to serve as negative unstimulated control. Fluorescence (indicating the calcium influx as a result of the NR1/NR2B ion channel activation) was read on the FLIPRtetra device for 60 seconds to monitor the glutamate induced effects. After 2 minutes 20 μL of compound dilution prepared as described above or controls (row 1-22) in assay buffer were carefully added to the wells. […] The average of 2 measurements at 5 minutes and 5 min 10 seconds after compound addition is calculated and further used for IC50 calculations. Each assay microtiter compound dilution plate contained wells (in column 23 or 24) with DMSO controls instead of compound as controls for glycine/glutamate induced fluorescence (high controls) and wells with 1 μM of a reference NR2B NAM as low controls (Compound 22; reference: Layton, Mark E et al, ACS Chemical Neuroscience 2011, 2(7), 352-362).
# The output file of the reader contains the well number and measured average fluorescence units. For data evaluation and calculation, the measurement of the low control was set as 0% control and the measurement of the high control was set as 100% control. The IC50 values were calculated using the standard 4 parameter logistic regression formula. Calculation: [y=(a−d)/(1+(x/c)^b)+d], a=low value, d=high value; x=conc M; c=IC50 M; b=slope.
# [2] = target: Nav1.6 channel (Homo sapiens (Human), UniProt Q9UQD0); experiment: Nav1.6 inhibition, IonWorks Quattro electrophysiology; format: cell-based
# Method: IonWorks Quattro electrophysiological platform
# The compounds were prepared in DMSO at 300× the final assay concentrations of 1 and 5 μM.
# The 300× DMSO stock solutions were transferred into assay plates where 2 μl per well of each 300× stock solution were placed. All assay plates were stored at −80° C. until the day of assay.
# On the day of the assay, the appropriate assay plate was thawed at room temperature, centrifuged, and 198 μl of external recording solution was added and mixed thoroughly. This provided a 1:100 dilution. A further 1:3 dilution occurred upon addition to the cells in the IonWorks Quattro electrophysiological platform, giving a 1:300 dilution in total. On each assay plate, at least 8 wells were reserved for vehicle control (0.3% DMSO) and at least 8 wells for each positive control specific to the cell line tested. The positive controls were tested at a maximal blocking and an approximate IC50 concentration. As positive control Lidocaine at concentrations of 30 and 1000 μM was used.
# The solutions for recording Nav1.6 currents were as follows:
# Amphotericin B was used to obtain electrical access to the cell interior at a final concentration of 200 μg/ml in internal recording solution.
# State-dependent inhibition: Sodium channels when held at depolarized potential or long test pulse, the channels open and inactivate and then stay inactivated until the membrane potential is stepped back to hyperpolarized potentials, when the inactivated channels recover from inactivation into closed state.
# Cells were held at −120 mV. In order to completely inactivate the sodium channels (pulse 1), the cells were pulsed to +0 mV for 2500 ms and stepped back to −120 mV for 10 ms (to completely recover from inactivation, however channels that had drugs bound to them will not recover from inactivation) before stepping to +0 mV for 20 ms (pulse 2).
# Assay Control Results Both the positive and vehicle control data associated with each cell line assayed are shown below as an example. The mean is shown for each positive and negative control as solid symbol with the total number of individual well replicates given next to the solid symbol. In addition, the individual data of each well are shown on the graph as open symbols so that the variation about the mean value can be readily assessed.
# Shown below are the assay controls for the Nav1.6 IonWorks Quattro assay.
# Tables 3 and 4 show the normalized percentage inhibition of Nav1.6 channel. […] (see also the figure Assay Control Results above).
# Chain of Nav1.6 channel (Q9UQD0 whole entry): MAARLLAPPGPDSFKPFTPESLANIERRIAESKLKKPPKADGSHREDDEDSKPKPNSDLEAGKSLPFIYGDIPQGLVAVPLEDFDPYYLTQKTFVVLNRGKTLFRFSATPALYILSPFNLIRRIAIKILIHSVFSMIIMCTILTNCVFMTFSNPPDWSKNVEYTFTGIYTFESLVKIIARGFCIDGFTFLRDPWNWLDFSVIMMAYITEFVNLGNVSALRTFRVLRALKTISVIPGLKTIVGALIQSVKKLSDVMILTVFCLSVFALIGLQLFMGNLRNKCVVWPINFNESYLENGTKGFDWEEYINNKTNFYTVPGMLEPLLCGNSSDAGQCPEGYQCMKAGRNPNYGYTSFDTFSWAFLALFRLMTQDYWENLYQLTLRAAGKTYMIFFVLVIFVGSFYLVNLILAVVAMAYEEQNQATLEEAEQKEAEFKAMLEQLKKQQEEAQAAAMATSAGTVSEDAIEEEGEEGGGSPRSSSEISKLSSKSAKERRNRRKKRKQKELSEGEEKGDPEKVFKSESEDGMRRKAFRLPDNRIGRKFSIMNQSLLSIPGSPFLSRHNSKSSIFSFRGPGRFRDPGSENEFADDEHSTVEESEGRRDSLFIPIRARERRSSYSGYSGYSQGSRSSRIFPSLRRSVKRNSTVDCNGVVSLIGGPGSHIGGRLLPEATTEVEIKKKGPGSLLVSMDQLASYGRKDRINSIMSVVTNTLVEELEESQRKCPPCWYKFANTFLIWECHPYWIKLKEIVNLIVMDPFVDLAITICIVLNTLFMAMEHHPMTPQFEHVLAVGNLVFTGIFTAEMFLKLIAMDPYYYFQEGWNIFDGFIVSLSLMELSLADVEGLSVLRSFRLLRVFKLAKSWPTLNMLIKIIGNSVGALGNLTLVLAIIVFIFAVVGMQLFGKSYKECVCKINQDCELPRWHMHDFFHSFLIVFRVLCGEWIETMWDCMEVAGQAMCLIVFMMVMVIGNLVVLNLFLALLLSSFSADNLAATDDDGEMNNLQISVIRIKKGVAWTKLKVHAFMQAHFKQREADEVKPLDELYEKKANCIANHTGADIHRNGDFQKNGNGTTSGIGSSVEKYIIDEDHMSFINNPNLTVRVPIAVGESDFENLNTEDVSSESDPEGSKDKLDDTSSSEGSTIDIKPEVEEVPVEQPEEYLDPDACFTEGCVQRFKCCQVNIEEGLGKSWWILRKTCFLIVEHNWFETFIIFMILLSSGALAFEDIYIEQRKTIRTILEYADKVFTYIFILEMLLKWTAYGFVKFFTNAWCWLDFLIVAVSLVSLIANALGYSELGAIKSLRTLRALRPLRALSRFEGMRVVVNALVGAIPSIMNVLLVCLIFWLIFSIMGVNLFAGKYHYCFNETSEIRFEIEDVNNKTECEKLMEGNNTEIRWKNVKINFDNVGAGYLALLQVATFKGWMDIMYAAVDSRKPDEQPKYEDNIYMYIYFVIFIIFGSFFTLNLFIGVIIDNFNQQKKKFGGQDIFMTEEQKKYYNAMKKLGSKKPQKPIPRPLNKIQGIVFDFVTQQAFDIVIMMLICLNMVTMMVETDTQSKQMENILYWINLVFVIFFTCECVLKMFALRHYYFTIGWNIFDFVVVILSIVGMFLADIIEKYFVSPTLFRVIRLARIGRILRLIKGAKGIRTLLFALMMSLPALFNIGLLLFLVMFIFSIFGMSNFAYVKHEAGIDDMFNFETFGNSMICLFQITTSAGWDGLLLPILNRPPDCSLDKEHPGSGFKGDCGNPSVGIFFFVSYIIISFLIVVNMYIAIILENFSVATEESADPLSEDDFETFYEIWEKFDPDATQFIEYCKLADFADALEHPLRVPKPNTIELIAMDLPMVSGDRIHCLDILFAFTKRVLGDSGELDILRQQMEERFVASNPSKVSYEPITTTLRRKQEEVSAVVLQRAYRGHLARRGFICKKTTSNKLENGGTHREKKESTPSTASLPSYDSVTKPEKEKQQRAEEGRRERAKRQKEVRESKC
# Chain of NMDA NR1/NR2B receptor (Q13224 27-1484, other chains not shown): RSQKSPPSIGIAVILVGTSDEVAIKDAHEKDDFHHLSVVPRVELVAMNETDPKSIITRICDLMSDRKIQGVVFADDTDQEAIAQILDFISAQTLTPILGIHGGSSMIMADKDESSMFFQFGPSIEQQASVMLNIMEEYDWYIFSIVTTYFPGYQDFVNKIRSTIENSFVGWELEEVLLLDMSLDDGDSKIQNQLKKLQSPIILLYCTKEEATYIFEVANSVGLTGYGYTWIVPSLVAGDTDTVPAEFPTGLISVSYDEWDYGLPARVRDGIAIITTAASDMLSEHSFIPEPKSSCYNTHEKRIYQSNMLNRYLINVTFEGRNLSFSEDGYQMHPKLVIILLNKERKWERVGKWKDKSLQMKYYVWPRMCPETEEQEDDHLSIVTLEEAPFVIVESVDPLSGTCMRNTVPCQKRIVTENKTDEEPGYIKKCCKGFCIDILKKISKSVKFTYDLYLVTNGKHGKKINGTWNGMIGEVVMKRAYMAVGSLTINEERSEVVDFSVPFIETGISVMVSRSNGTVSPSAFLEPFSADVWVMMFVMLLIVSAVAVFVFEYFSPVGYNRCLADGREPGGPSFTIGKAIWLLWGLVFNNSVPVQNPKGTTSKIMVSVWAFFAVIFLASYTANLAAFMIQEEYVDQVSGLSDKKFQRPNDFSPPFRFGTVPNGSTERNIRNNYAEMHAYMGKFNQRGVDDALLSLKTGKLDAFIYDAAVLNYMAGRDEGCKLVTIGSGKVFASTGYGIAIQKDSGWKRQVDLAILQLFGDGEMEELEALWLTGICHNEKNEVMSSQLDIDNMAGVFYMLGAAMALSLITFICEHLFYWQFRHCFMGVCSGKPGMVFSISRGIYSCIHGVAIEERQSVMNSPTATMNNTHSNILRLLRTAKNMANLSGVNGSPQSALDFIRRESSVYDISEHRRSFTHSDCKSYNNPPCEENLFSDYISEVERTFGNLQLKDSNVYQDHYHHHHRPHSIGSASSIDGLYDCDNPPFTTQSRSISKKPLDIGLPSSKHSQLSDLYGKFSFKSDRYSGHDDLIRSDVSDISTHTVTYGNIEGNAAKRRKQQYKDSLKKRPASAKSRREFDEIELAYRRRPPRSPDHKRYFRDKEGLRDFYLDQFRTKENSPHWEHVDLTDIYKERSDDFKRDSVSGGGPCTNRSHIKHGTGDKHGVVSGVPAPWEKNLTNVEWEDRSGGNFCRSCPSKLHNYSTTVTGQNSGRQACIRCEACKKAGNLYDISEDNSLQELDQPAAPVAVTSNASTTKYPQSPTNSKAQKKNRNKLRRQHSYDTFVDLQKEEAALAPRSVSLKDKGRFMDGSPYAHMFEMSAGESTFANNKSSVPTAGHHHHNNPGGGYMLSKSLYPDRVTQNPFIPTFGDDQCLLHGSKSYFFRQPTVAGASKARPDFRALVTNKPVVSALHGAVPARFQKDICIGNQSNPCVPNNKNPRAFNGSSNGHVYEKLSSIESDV
structure (smiles),measurement,setting,value
CNC(=O)[C@@H]1CN(Cc2cnc(Oc3ccccc3)cn2)CCO1 [Example 34],IC50,[1],0.644 µM
CNC(=O)[C@@H]1CN(Cc2cnc(Oc3c(F)cccc3F)cn2)CCO1 [Example 35],IC50,[1],0.197 µM
CNC(=O)[C@@H]1CN(Cc2cnc(Oc3c(C)cccc3F)cn2)CCO1 [Example 36],IC50,[1],0.542 µM
"CCN(CC)CC(=O)Nc1c(C)cccc1C [Lidocaine, reference compound]",inhibition at 1000 µM,[2]; read-out: maximum inhibition at P1 (not normalized),46.4 to 47.2%
same,inhibition of evoked Nav1.6 currents,"[2]; reference compound, FIG. 2",inhibited evoked currents in a concentration and use dependent manner
"CCCCNc1ccc(C(=O)OCCN(C)C)cc1 [Tetracaine, reference compound]",state-dependent inhibition of Nav1.6,[2]; FIG. 1,much stronger at depolarized potentials than at hyperpolarized potential
